The test system of the experiment is Trinitrobenzenesulfonic Acid (TNBS) Rat Model of Colonic Inflammation. Briefly: Trinitrobenzenesulfonic acid (TNBS) rat model of colonic inflammation, oral treatment Days 1-6, evaluation Day 7. The arrangement: key to Average Colonic Score: sum of adhesions, strictures, ulcers and wall thickness scores. The class given is in vivo, Sprague-Dawley rats. How it is done:
In Vivo Efficacy of PDE4 Inhibitor Prodrug in the Trinitrobenzenesulfonic Acid (TNBS) Rat Model of Colonic Inflammation
2. 1.62 g of prodrug from Example 2 (WB301), lot 2 (MW 587.12) in a clear 20 mL glass vial (orange material) which was stored at 4-8° C.
38 Sprague-Dawley rats (Harlan Sprague-Dawley, Inc. male, PO #599229, R #3450, 200-220 g) were received, individually examined and housed in nine cages of four rats each and one cage containing two rats. No clinical signs of disease or distress were observed. The rats were placed in quarantine with daily inspections. The rats were ear notched (SOP 800) for identification purposes, weighed (RESULTS), and sorted into four treatment groups of eight rats each based upon average body weight. The rats were individually examined and found to be free of any clinical signs of disease or distress. No deaths were recorded during the quarantine period. The rats were released to routine maintenance.
A 16 mg/ml TNBS solution was prepared be adding 2.729 ml picrylsulfonic acid solution (1 M, FLU KA, Cat. 92822, lot CDBB6609V) to 22.271 ml de-ionized water (dH20) and 25 ml 100% ethanol (200 proof, Sigma, Cat. E7023, lot SHBH3633V).
The rats were weighed (RESULTS), anesthetized (SOP1810) and Groups 1-4 were intra-rectally instilled with 4 ml/kg TNBS solution (64 mg/kg), the anus was pinched closed and the rat held inverted for one minute.
400 mg (-)riboflavin was dissolved in 40 ml DMSO (Sigma, Cat. D5879, lot 16K0127) by sonication in a 40° C. water bath for 20 minutes in an amber glass bottle, followed by storage at room temperature overnight to prepare a 10 mg/ml yellow solution.
135 mg NaOH (Fisher Scientific, Cat. S320, lot 066620) was dissolved in 100 ml dH2O to prepare a 1.35 mg/ml solution. 128.46 mg prednisolone 21-hemisuccinate sodium salt (Sigma, Cat. P4153, lot BCBB6136V, salt factor 1.339) was dissolved in 9.59 ml (-)riboflavin/DMSO followed by addition of 9.59 ml PEG400 (Sigma, Cat. 91893, lot BCBB7720). 28.781 aqueous NaOH was added with sonication to prepare a 2 mg/ml solution for Group 4. 44 mg WB301 was vortexed in 2.19 ml (-)riboflavin/DMSO to yield an orange solution followed by addition of 2.19 ml PEG400. 6.621 ml aqueous NaOH was added with sonication to prepare a 4 mg/ml solution for Group 1. 132 mg WB301 was vortexed in 2.19 ml (-)riboflavin/DMSO to yield an orange solution followed by addition of 2.19 ml PEG400. 6.621 ml aqueous NaOH was added with sonication to prepare a 12 mg/ml solution for Group 2. 6.6 mg apremilast was vortexed in 2.2 ml (-)riboflavin/DMSO to yield an orange solution followed by addition of 6.6 ml PEG400. 2.2 ml dH2O was added to prepare a 0.6 mg/ml solution for Group 3.
The rats were weighed (RESULTS) and daily oral (PO, SOP 1651) dosing at 5 ml/kg was initiated as in TABLE 1.
The rats were weighed (RESULTS) and the animals were dosed as described above daily. WB301 and apremilast solutions were prepared fresh daily as described above.
The rats were weighed (RESULTS) anesthetized, a midline incision was made in the abdomen and the colon was evaluated for adhesions and stricture (RESULTS). The colon was removed and the length recorded (RESULTS). A midline incision was made the entire length of the colon, the contents removed and the colon weight and colon wall thickness recorded (RESULTS). A section of the colon was preserved in 20 volumes of 10% neutral buffered formalin (Richard-Allan Scientific, Cat. 5701, lot 378532, exp07/2020). The carcasses were disposed of.
3) involving several bowel loops=2
4) severe, proximal dilatation=3
2) linear ulceration <1 cm=1
3) two linear ulcers <1 cm=2
4) more sites of ulceration or one large ulcer=3

The mark [1] stands for this setting: group mean, Group 3, 3 mg/kg PO daily, Day 7.
[2] abbreviates: group mean, Group 3, 3 mg/kg PO daily, Day 7, score 0-2.
The mark [3] stands for this setting: group mean, Group 3, 3 mg/kg PO daily, Day 7, score 0-3.
Where [4] appears, read: individual rats, Group 3, 3 mg/kg PO daily, Day 7.

Structures are written as SMILES. “And” between values parts separate entries of the source, which are not always exact repeats. Identical values can stand only once.

Take `CCOc1cc([C@@H](CS(C)(=O)=O)N2C(=O)c3cccc(NC(C)=O)c3C2=O)ccc1OC` [Apremilast, apremilast, reference compound]: under “Group 3, 3 mg/kg daily oral”, the macroscopic disease scores entry is “improvement of the macroscopic disease scores”. Besides, under “Group 3, 3 mg/kg daily oral”, the “study day on which rats began to recover from TNBS-induced weight loss” value amounted to 6 days. For the same compound, the “reduction in overall colonic score” value (Group 3, 3 mg/kg daily oral, assuming a colonic score of 10 for vehicle-treated rats) was 25%. For the same compound, the body weight loss (Group 3, 3 mg/kg daily oral, through DAY 5) is reported as 11%. The “Average # Ulcers” value under setting [1] is recorded as 1. Under setting [1], the “Average Colon Length” value is on record as 13.1 cm. The “Average Colon Weight” value under setting [1] was determined as 4.793 g. Besides, under setting [1], the “Average Colonic Score” value is 7.6. Further, the “Average Ratio (colon length/colon weight)” value under setting [1] amounted to 3.470 cm/g. For the same compound, the “Average Ulcer Length” value under setting [1] is recorded as 6.3 cm. For the same compound, the “Average Wall Thickness” value under setting [1] turned out to be 3.0 mm. Further, the “Average Adhesions” value under setting [2] worked out at 1.3. In addition, the “Average Colon Wall Thickness, score” value under setting [2] is listed as 1.5. Under setting [3], the “Average Strictures” value is 1.9. Besides, the “Average Ulcers, score” value under setting [3] came to 3.0. In addition, the “Average Rat Weight” value reads like this: (group mean, Group 3, 3 mg/kg PO daily, study day 0, day of TNBS, before dosing) 214 g; (group mean, Group 3, 3 mg/kg PO daily, study day 1, before first dose) 207 g; (group mean, Group 3, 3 mg/kg PO daily, study day 2) 198 g; (group mean, Group 3, 3 mg/kg PO daily, study day 3) 195 g; (group mean, Group 3, 3 mg/kg PO daily, study day 4) 190 g; (group mean, Group 3, 3 mg/kg PO daily, study day 5) 190 g. For the same compound, the “Average Rat Weight” value reads like this: (group mean, Group 3, 3 mg/kg PO daily, study day 6) 194 g; (group mean, Group 3, 3 mg/kg PO daily, study day 7) 201 g; (group mean, Group 3, 3 mg/kg PO daily, study day −3, before TNBS and dosing) 215 g. In addition, under setting [4], the “# Ulcers” value came to 1. Moreover, under setting [4], the “Colon Length” value was 10.0 cm and 15.5 cm and 12.0 cm (2×) and 11.5 cm and 13.0 cm and 15.0 cm and 16.0 cm. Besides, the “Colon Weight” value under setting [4] is 3.608 g and 7.577 g and 2.860 g and 3.000 g and 4.462 g and 9.199 g and 6.085 g and 1.550 g. For the same compound, under setting [4], the “Ratio (colon length/colon weight)” value is 2.772 cm/g and 2.046 cm/g and 4.196 cm/g and 3.833 cm/g and 2.913 cm/g and 1.631 cm/g and 2.629 cm/g and 7.742 cm/g. For the same compound, under setting [4], the “Ulcer Length” value was 6.5 cm (2×) and 5.5 cm and 6.0 cm and 6.4 cm and 8.0 cm and 7.5 cm and 4.0 cm. In addition, the “Wall Thickness” value under setting [4] was 2.5 mm (3×) and 3.5 mm (2×) and 3.7 mm and 4.0 mm and 1.5 mm. Also, the “Colon Wall Thickness, score” value (individual rats, Group 3, 3 mg/kg PO daily, Day 7, less than 1 mm=0, 1-3 mm=1, >3 mm=2) was 1 (4×) and 2 (4×). In addition, the “Ulcers, score” value (individual rats, Group 3, 3 mg/kg PO daily, Day 7, none=0, linear ulceration <1 cm=1, two linear ulcers <1 cm=2, more sites or one large ulcer=3) was found to be 3. Moreover, the Strictures (individual rats, Group 3, 3 mg/kg PO daily, Day 7, score none=0, mild=1, moderate=2, severe, proximal dilatation=3) was 1 (3×) and 3 (4×) and 0. Besides, the Adhesions (individual rats, Group 3, 3 mg/kg PO daily, Day 7, score none=0, minimal=1, involving several bowel loops=2) is 1 (4×) and 2 (3×) and 0. Besides, the “Colonic Score” value (individual rats, Group 3, 3 mg/kg PO daily, Day 7, sum of adhesions, strictures, ulcers and wall thickness scores) was 6 and 10 (2×) and 7 (2×) and 8 and 9 and 4. The “Rat Weight” value runs as follows: (individual rats, Group 3, 3 mg/kg PO daily, study day 0, day of TNBS, before dosing) 218 g and 213 g and 206 g and 220 g and 205 g and 217 g (2×) and 214 g; (individual rats, Group 3, 3 mg/kg PO daily, study day 1, before first dose) 210 g and 213 g and 198 g and 214 g (2×) and 197 g and 204 g and 206 g; (individual rats, Group 3, 3 mg/kg PO daily, study day 2) 198 g and 203 g (2×) and 183 g and 187 g and 205 g and 193 g and 214 g; (individual rats, Group 3, 3 mg/kg PO daily, study day 3) 190 g and 200 g and 180 g (2×) and 198 g (2×) and 187 g and 225 g; (individual rats, Group 3, 3 mg/kg PO daily, study day 4) 187 g (2×) and 200 g and 170 g and 188 g and 173 g and 183 g and 234 g; (individual rats, Group 3, 3 mg/kg PO daily, study day 5) 189 g and 200 g and 167 g and 182 g (2×) and 172 g and 185 g and 244 g. Also, the “Rat Weight” value is, setting by setting: (individual rats, Group 3, 3 mg/kg PO daily, study day 6) 212 g and 202 g and 163 g and 176 g and 172 g and 186 g and 188 g and 250 g; (individual rats, Group 3, 3 mg/kg PO daily, study day 7) 236 g and 210 g and 178 g (2×) and 177 g and 179 g and 194 g and 256 g; (individual rats, Group 3, 3 mg/kg PO daily, study day −3, before TNBS and dosing) 218 g and 212 g and 210 g and 219 g and 209 g and 220 g and 217 g and 213 g.

In the case of `Nc1ccc(O)c(C(=O)O)c1` [Example 5-ASA, 5-aminosalacyclic acid, reference compound], the “activity in the TNBS model” value (rat TNBS model, stated without data) is “inactive”.

The values above are taken from patent US11639332B2, “Methods and compositions of isoindoline-1,3-dione and isoindole prodrugs useful for treating cancer, ulcerative colitis and related inflammatory diseases” (AMGEN (EUROPE) GMBH, priority 2018, dated 2023).
